Source: patent US20250154154A1 (Relay Binney Street, 2nd Floor, priority 2020, published 2025)

Each compound was assayed against SRC (Homo sapiens, UniProt P12931) (assay: SRC Biochemical Assay Protocol (microfluidic mobility shift assay, FLPeptide4 substrate)).
Experimental: SRC Biochemical Assay Protocol
Src biochemical kinase activity was measured using a surrogate fluorescent peptide substrate [FLPeptide4; 5-FAM-EGIYGVLFKKK-CONH2 (PerkinElmer Cat. No. 760348)] with a microfluidic mobility shift assay. Reactions were performed in 384-well flat bottom polystyrene microplates (Corning Cat. No. 3570) at a final volume of 20 μL in 50 mM HEPES pH 7.4, 1 mM EGTA, 10 mM MgCl2, 0.01% Brij-35, 2 mM DTT, 0.05% BSA, 1% DMSO. Inhibition experiments were performed with compounds of the invention varying from 0.0017-100 μM with 0.26 nM SRC, 1.5 μM FLPeptide4, and 50 μM ATP. Specifically, 15 μl 1.3× mixtures of SRC+FLPeptide4+compounds were preincubated for 30 minutes at room temperature followed by addition of 5 μL 4×ATP. Reactions were carried out for 90 minutes then quenched with 40 μl 500 mM EDTA. Phosphorylated peptide product was measured with a mobility shift assay using a LabChip® EZ Reader system (PerkinElmer Cat. No. 122919). Inhibition ratios were calculated relative to neutral controls and IC50 values were obtained from dose response data fitted to a 4-parameter logistic model.

Chain of SRC (P12931 whole entry, species assumed): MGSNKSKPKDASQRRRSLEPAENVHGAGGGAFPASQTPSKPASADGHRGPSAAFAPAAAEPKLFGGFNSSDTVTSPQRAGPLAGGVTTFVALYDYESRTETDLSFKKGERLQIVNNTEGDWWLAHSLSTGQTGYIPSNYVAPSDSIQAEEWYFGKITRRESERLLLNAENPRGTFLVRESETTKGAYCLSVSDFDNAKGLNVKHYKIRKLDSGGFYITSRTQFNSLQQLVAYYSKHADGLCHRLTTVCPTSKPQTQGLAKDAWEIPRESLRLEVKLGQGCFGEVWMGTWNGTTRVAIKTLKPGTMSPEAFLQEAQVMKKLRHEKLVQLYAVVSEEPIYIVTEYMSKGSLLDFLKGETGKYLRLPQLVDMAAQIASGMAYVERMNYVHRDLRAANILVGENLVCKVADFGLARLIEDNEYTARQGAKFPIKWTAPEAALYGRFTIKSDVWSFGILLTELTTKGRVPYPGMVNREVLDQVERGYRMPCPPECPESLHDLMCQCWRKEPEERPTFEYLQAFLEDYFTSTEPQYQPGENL

Structure (SMILES)	IC50 [nM]
C=CC(=O)N1CCC(N2CC(C#Cc3c(-c4ccc(Oc5ccccc5)cc4)c4c(N)ncnc4n3[C@H]3C[C@H](O)C3)C2)CC1 [III-68]	10 to 1000
C=CC(=O)N1CC[C@H](N2CC(C#Cc3c(-c4ccc(Oc5ccccc5)cc4)c4c(N)ncnc4n3C)C2)[C@@H](C)C1 [III-69]	10 to 1000
C=CC(=O)N1CCC(N2CC(C#Cc3c(-c4ccc(Oc5ccccc5)cc4)c4c(N)ncnc4n3[C@H]3C[C@@H](O)C3)C2)CC1 [III-70]	≤ 10
Cn1c(C#CC2CC3(C2)CN(C(=O)/C=C/CN2CCOCC2)C3)c(-c2ccc(Oc3ccccc3)cc2)c2c(N)ncnc21 [III-71]	10 to 1000
C=CC(=O)N1CCC(N2CCC(C#Cc3c(-c4ccc(Oc5ccccc5)cc4)c4c(N)ncnc4n3C)C2)CC1 (stereo not drawn) [III-73]	10 to 1000
C=CC(=O)N1CCC(N2CC(C#Cc3c(-c4ccc(Oc5ccccc5)c(C#N)c4)c4c(N)ncnc4n3C)C2)CC1 [III-74]	> 10000
C=CC(=O)N1CCC(N2CC(C#Cc3c(-c4ccc(Oc5cccc(C)n5)cc4)c4c(N)ncnc4n3C)C2)CC1 [III-75]	10 to 1000
C=CC(=O)N[C@H](C)C(=O)N1CCC(C#Cc2c(-c3ccc(Oc4ccccc4)cc3)c3c(N)ncnc3n2C2CCOC2)CC1 (stereo partly drawn) [III-76]	≤ 10
C=CC(=O)N1CC[C@H](C#Cc2c(-c3ccc(Oc4ccccc4)cc3)c3c(N)ncnc3n2C)C[C@@H]1C [III-77]	10 to 1000
Cn1c(C#CC2CN(C(=O)/C=C/CN3CC(O)C3)C2)c(-c2ccc(Oc3ccccc3)cc2)c2c(N)ncnc21 [III-78]	10 to 1000
C=CC(=O)N1CC[C@@H](C#Cc2c(-c3ccc(Oc4ccccc4)cc3)c3c(N)ncnc3n2C)C[C@@H]1C [III-79]	10 to 1000
C=CC(=O)N1CCC(N2CC(C#Cc3c(-c4ccc(Oc5ccccc5)cc4OC)c4c(N)ncnc4n3C)C2)CC1 [III-80]	10 to 1000
Cn1c(C#CC2CN(C(=O)/C=C/CN3CCC3)C2)c(-c2ccc(Oc3ccccc3)cc2)c2c(N)ncnc21 [III-81]	10 to 1000
C=CC(=O)N1CCC(N2CC(C#Cc3c(-c4ccc(Oc5ccccc5)cc4F)c4c(N)ncnc4n3C)C2)CC1 [III-82]	10 to 1000
C=CC(=O)N1CCC(N2CC(C#Cc3c(-c4ccc(Oc5ccccc5)c(C)c4)c4c(N)ncnc4n3C)C2)CC1 [III-83]	10 to 1000
CN(C)C/C=C/C(=O)N1CC(C#Cc2c(-c3ccc(Oc4ccccc4)cc3)c3c(N)ncnc3n2C)C1 [III-84]	10 to 1000
C=CC(=O)N1CCC(N2CC(C#Cc3c(-c4ccc(Oc5ccccc5)c5c4OCO5)c4c(N)ncnc4n3C)C2)CC1 [III-85]	≤ 10
COc1cc(-c2c(C#CC3CN(C)C3)n(C)c3ncnc(N)c23)ccc1Oc1cccc(C)n1 [III-86]	10 to 1000
C=CC(=O)N1CCC(N2CC(C#Cc3c(-c4ccc(Oc5ccccn5)c(OC)c4)c4c(N)ncnc4n3C)C2)C(S(C)(=O)=O)C1 (stereo not drawn) [III-87]	10 to 1000
C=CC(=O)N1C[C@@H]2[C@@H](C#Cc3c(-c4ccc(Oc5ccccc5)c5c4OCO5)c4c(N)ncnc4n3C)[C@@H]2C1 [III-88]	≤ 10
C=CC(=O)N1CCC(N2CC(C#Cc3c(-c4ccc(Oc5nnc(C)o5)c(OC)c4)c4c(N)ncnc4n3C)C2)CC1 [III-89]	10 to 1000
C=CC(=O)N1CCC(N2CC(C#Cc3c(-c4ccc(Oc5cccc(C)n5)c5c4OCO5)c4c(N)ncnc4n3C)C2)CC1 [III-90]	10 to 1000
C=CC(=O)N1CCC(N2CC(C#Cc3c(-c4ccc(Oc5cccc(C)n5)c(OC)c4)c4c(N)ncnc4n3C3CCOC3)C2)CC1 (stereo not drawn) [III-91]	10 to 1000
C=CC(=O)N1CCC(N2CC(F)(C#Cc3c(-c4ccc(Oc5cccc(C)n5)c(OC)c4)c4c(N)ncnc4n3C)C2)C[C@H]1COC (stereo partly drawn) [III-92]	10 to 1000
C=CC(=O)N1CCC(N2CC(N)(C#Cc3c(-c4ccc(Oc5cccc(C)n5)c(OC)c4)c4c(N)ncnc4n3C)C2)CC1 [III-93]	1000 to 10000
C=CC(=O)NCC#Cc1c(-c2ccc(Oc3ncccn3)c(OC)c2)c2c(N)ncnc2n1C [III-94]	1000 to 10000
C=CC(=O)NCC#Cc1c(-c2ccc(Oc3ncccn3)cc2)c2c(N)ncnc2n1C [III-95]	1000 to 10000
